Reference: ChEMBL document CHEMBL3044672, “N9- and N7-(Chloromethyl Phenymethyl)Chloropurine Derivatives from , '-Dichloroxylenes: Synthesis and Anticancer Activity” (2005)

What was measured:
Type in all cases: functional
[1] = system: UACC-257; assay: Cytotoxicity against Homo sapiens (human) UACC257 cells after 48 hr by sulforhodamine B assay; details: UACC-257, 48 h
[2] = system: SNB-19; assay: Cytotoxicity against Homo sapiens (human) SNB19 cells after 48 hr by sulforhodamine B assay; details: SNB-19, 48 h
[3] = system: EKVX; assay: Cytotoxicity against Homo sapiens (human) EKVX cells after 48 hr by sulforhodamine B assay; details: for CC50: read-out: LC50 (the source's name)
[4] = system: M14; assay: Cytotoxicity against Homo sapiens (human) M14 cells after 48 hr by sulforhodamine B assay; details: M14, 48 h
[5] = system: A549; assay: Cytotoxicity against Homo sapiens (human) A549 cells after 48 hr by sulforhodamine B assay; details: A549, 48 h; for CC50: read-out: LC50 (the source's name)
[6] = system: SW-620; assay: Cytotoxicity against Homo sapiens (human) SW620 cells after 48 hr by sulforhodamine B assay; details: SW-620, 48 h
[7] = system: HCC 2998; assay: Cytotoxicity against Homo sapiens (human) HCC2998 cells after 48 hr by sulforhodamine B assay; details: HCC 2998, 48 h; for CC50: read-out: LC50 (the source's name)
[8] = system: SK-MEL-5; assay: Cytotoxicity against Homo sapiens (human) SK-MEL-5 cells after 48 hr by sulforhodamine B assay; details: SK-MEL-5, 48 h
[9] = system: HT-29; assay: Cytotoxicity against Homo sapiens (human) HT-29 cells after 48 hr by sulforhodamine B assay; details: HT-29, 48 h
[10] = system: OVCAR-5; assay: Cytotoxicity against Homo sapiens (human) OVCAR5 cells after 48 hr by sulforhodamine B assay; details: OVCAR-5, 48 h; for CC50: read-out: LC50 (the source's name)
[11] = system: A498; assay: Cytotoxicity against Homo sapiens (human) A498 cells after 48 hr by sulforhodamine B assay; details: A498, 48 h
[12] = system: OVCAR-8; assay: Cytotoxicity against Homo sapiens (human) OVCAR8 cells after 48 hr by sulforhodamine B assay; details: OVCAR-8, 48 h
[13] = system: TK-10; assay: Cytotoxicity against Homo sapiens (human) TK10 cells after 48 hr by sulforhodamine B assay; details: TK-10, 48 h; for CC50: read-out: LC50 (the source's name)
[14] = system: SK-MEL-2; assay: Cytotoxicity against Homo sapiens (human) SK-MEL-2 cells after 48 hr by sulforhodamine B assay; details: SK-MEL-2, 48 h
[15] = system: SF-539; assay: Cytotoxicity against Homo sapiens (human) SF539 cells after 48 hr by sulforhodamine B assay; details: SF-539, 48 h
[16] = system: OVCAR-3; assay: Cytotoxicity against Homo sapiens (human) OVCAR3 cells after 48 hr by sulforhodamine B assay; details: OVCAR-3, 48 h
[17] = system: K562; assay: Cytotoxicity against Homo sapiens (human) K562 cells after 48 hr by sulforhodamine B assay; details: K562, 48 h; for CC50: read-out: LC50 (the source's name)
[18] = system: RPMI-8226; assay: Cytotoxicity against Homo sapiens (human) RPMI8226 cells after 48 hr by sulforhodamine B assay; details: RPMI-8226, 48 h; for CC50: read-out: LC50 (the source's name)
[19] = system: IGROV-1; assay: Cytotoxicity against Homo sapiens (human) IGROV1 cells after 48 hr by sulforhodamine B assay; details: IGROV-1, 48 h
[20] = system: MCF7; assay: Cytotoxicity against Homo sapiens (human) MCF7 cells assessed as cell growth at 10^-4 M after 48 hr by Alamar blue assay; details: MCF7, 48 h, read-out: Activity
[21] = system: CAKI-1; assay: Cytotoxicity against Homo sapiens (human) Caki1 cells after 48 hr by sulforhodamine B assay; details: CAKI-1, 48 h; for CC50: read-out: LC50 (the source's name)
[22] = system: SF-295; assay: Cytotoxicity against Homo sapiens (human) SF295 cells after 48 hr by sulforhodamine B assay; details: SF-295, 48 h; for CC50: read-out: LC50 (the source's name)
[23] = system: DU-145; assay: Cytotoxicity against Homo sapiens (human) DU145 cells after 48 hr by sulforhodamine B assay; details: DU-145, 48 h
[24] = system: HCT-116; assay: Cytotoxicity against Homo sapiens (human) HCT116 cells after 48 hr by sulforhodamine B assay; details: HCT-116, 48 h
[25] = system: LOX IMVI; assay: Cytotoxicity against Homo sapiens (human) LOXIMVI cells after 48 hr by sulforhodamine B assay
[26] = system: OVCAR-4; assay: Cytotoxicity against Homo sapiens (human) OVCAR4 cells after 48 hr by sulforhodamine B assay; details: OVCAR-4, 48 h
[27] = read-out: LC50 (the source's name)

ClCc1ccc(Cn2cnc3ncnc(Cl)c32)cc1
GI50 [1]: 1.58 µM | LC50 (concentration killing 50% of cells) [1]: 7.76 µM | TGI [1]: 3.46 µM | GI50 [2]: 1.69 µM | LC50 [2]: 5.75 µM | TGI [2]: 3.16 µM | GI50 [3]: 2.23 µM | TGI [3]: 4.46 µM | CC50 [3]: 8.7 µM | GI50 [4]: 2.75 µM | LC50 [4]: 37.1 µM | TGI [4]: 13.2 µM | GI50 [5]: 1.81 µM | TGI [5]: 4.16 µM | CC50 [5]: 9.33 µM | GI50 [6]: 2.57 µM | TGI [6]: 7.24 µM | CC50 [6, 27]: 32.4 µM | GI50 [7]: 1.41 µM | TGI [7]: 2.88 µM | CC50 [7]: 5.75 µM | GI50 [8]: 2.81 µM | LC50 [8]: 34.7 µM | TGI [8]: 12 µM | GI50 [9]: 1.23 µM | TGI [9]: 3.63 µM | CC50 [9, 27]: 56.2 µM | GI50 [10]: 6.3 µM | TGI [10]: 19.5 µM | CC50 [10]: 45.7 µM | GI50 [11]: 1.81 µM | LC50 (lethal concentration, 50% cell kill) [11]: 6.3 µM | TGI [11]: 3.38 µM | GI50 [12]: 3.16 µM | LC50 (concentration killing 50% of cells) [12]: 56.2 µM | TGI [12]: 11 µM | GI50 [13]: 1.47 µM | TGI [13]: 2.95 µM | CC50 [13]: 5.75 µM | GI50 [14]: 6.3 µM | LC50 (concentration killing 50% of cells) [14]: > 100 µM | TGI [14]: > 100 µM | GI50 [15]: 2.08 µM | LC50 (concentration killing 50% of cells) [15]: 6.76 µM | TGI [15]: 3.71 µM | GI50 [16]: 1.81 µM | LC50 [16]: 6.3 µM | TGI [16]: 3.38 µM | GI50 [17]: 3.01 µM | TGI [17]: > 100 µM | CC50 [17]: > 100 µM | GI50 [18]: 1.28 µM | TGI [18]: 2.69 µM | CC50 [18]: 5.62 µM | GI50 [19]: 7.58 µM | LC50 [19]: > 100 µM | TGI [19]: 30.9 µM | growth at 100 µM [20]: 23% | GI50 [21]: 1.99 µM | TGI [21]: 4.46 µM | CC50 [21]: 9.77 µM | GI50 [22]: 2.04 µM | TGI [22]: 5.01 µM | CC50 [22]: 17 µM

ClCc1ccc(Cn2cnc3c(Cl)ncnc32)cc1
GI50 [1]: 7.41 µM | LC50 (concentration killing 50% of cells) [1]: 97.7 µM | TGI [1]: 28.8 µM | GI50 [2]: 3.63 µM | LC50 [2]: 89.1 µM | TGI [2]: 21.9 µM | GI50 [3]: 2.45 µM | TGI [3]: 6.92 µM | CC50 [3]: 38.9 µM | GI50 [4]: 1.28 µM | LC50 [4]: 9.12 µM | TGI [4]: 3.46 µM | GI50 [5]: 1.38 µM | TGI [5]: 18.2 µM | CC50 [5]: 51.3 µM | GI50 [7]: 0.66 µM | TGI [7]: 2.04 µM | CC50 [7]: 5.12 µM | GI50 [23]: 1.31 µM | LC50 [23]: 36.3 µM | TGI [23]: 11.8 µM | GI50 [8]: 3.23 µM | LC50 [8]: 74.1 µM | TGI [8]: 20.9 µM | GI50 [24]: 1.12 µM | TGI [24]: 2.45 µM | CC50 [24, 27]: 25.1 µM | GI50 [10]: 2.95 µM | TGI [10]: 9.23 µM | CC50 [10]: 34.7 µM | GI50 [11]: 12.9 µM | LC50 (lethal concentration, 50% cell kill) [11]: 57.5 µM | TGI [11]: 26.9 µM | GI50 [25]: 1 µM | LC50 [25]: 13.5 µM | TGI [25]: 3.46 µM | GI50 [12]: 3.02 µM | LC50 (concentration killing 50% of cells) [12]: 64.6 µM | TGI [12]: 15.1 µM | GI50 [13]: 1.09 µM | TGI [13]: 4.67 µM | CC50 [13]: 22.9 µM | GI50 [14]: 4.36 µM | LC50 (concentration killing 50% of cells) [14]: > 100 µM | TGI [14]: > 100 µM | LC50 (concentration killing 50% of cells) [15]: 70.8 µM | GI50 [16]: 1.38 µM | LC50 [16]: 8.91 µM | TGI [16]: 3.54 µM | GI50 [17]: 2.91 µM | TGI [17]: > 100 µM | CC50 [17]: > 100 µM | GI50 [18]: 2.13 µM | TGI [18]: 9.34 µM | CC50 [18]: > 100 µM | GI50 [19]: 3.16 µM | LC50 [19]: > 100 µM | TGI [19]: 25.1 µM | growth at 100 µM [20]: 7% | GI50 [21]: 0.26 µM | TGI [21]: 0.64 µM | CC50 [21]: 2.39 µM | GI50 [26]: 2.45 µM | LC50 (concentration killing 50% of cells) [26]: > 100 µM | TGI [26]: 6.6 µM | GI50 [22]: 0.27 µM | TGI [22]: 3.46 µM | CC50 [22]: 24 µM
